From ChEMBL document CHEMBL2029206, “Design, synthesis and biological evaluation of potent NAD+-dependent DNA ligase inhibitors as potential antibacterial agents. Part 2: 4-amino-pyrido[2,3-d]pyrimidin-5(8H)-ones” (Bioorg Med Chem Lett, 2012)
Converted amounts (≈) assume the structure as drawn. The source made the active and inactive calls. No cut-off for these calls is given here.

Tests used:
Staphylococcus aureus = test: Antibacterial activity against Staphylococcus aureus ATCC 29213; format: functional
Streptococcus pneumoniae = test: Antibacterial activity against Streptococcus pneumoniae ATCC 10015; format: functional
Haemophilus influenzae = test: Antibacterial activity against Haemophilus influenzae ATCC 51907; format: functional
[1] = Inhibition of Escherichia coli NAD+dependent DNA ligase
[2] = Inhibition of human ATP-dependent DNA ligase
Escherichia coli = test: Antibacterial activity against wild-type Escherichia coli; format: functional, organism-based

| Compound | MIC (Staphylococcus aureus) [µM] | MIC (Streptococcus pneumoniae) [µM] | MIC (Haemophilus influenzae) [µM] | IC50 [1] [nM] | IC50 [2] [nM] | Activity (Escherichia coli) |
| --- | --- | --- | --- | --- | --- | --- |
| C[C@H]1CC[C@H](Oc2nc(N)c3c(=O)ccn(C4[C@@H](O)CC[C@@H]4O)c3n2)CC1 | 25 (≈ 9.36 µg/mL) | 5.2 (≈ 1.95 µg/mL) | 100 (≈ 37.4 µg/mL) | 76 | > 55000 | inactive |
| C[C@H]1CC[C@H](Oc2nc(N)c3c(=O)ccn(Cc4ccc(C(=O)O)s4)c3n2)CC1 | > 100 | 83.3 (≈ 34.5 µg/mL) | 25 (≈ 10.4 µg/mL) | 490 | > 55000 | inactive |
| C[C@H]1CCCC[C@H]1Oc1nc(N)c2c(=O)ccn(CC(O)CO)c2n1 (relative stereo) | > 100 | > 100 | – | 79 | > 55000 | inactive |
| C[C@H]1CC[C@H](Oc2nc(N)c3c(=O)ccn([C@@H]4CCC[C@H]4O)c3n2)CC1 | 37.5 (≈ 13.4 µg/mL) | 3.1 (≈ 1.11 µg/mL) | 100 (≈ 35.8 µg/mL) | 190 | > 55000 | inactive |
| C[C@H]1CCCC[C@H]1Oc1nc(N)c2c(=O)ccn([C@@H]3CCC[C@H]3O)c2n1 | 100 (≈ 35.8 µg/mL) | 50 (≈ 17.9 µg/mL) | – | 40 | > 55000 | inactive |
| C[C@H]1CC[C@H](Oc2nc(N)c3c(=O)ccn(CCO)c3n2)CC1 | – | – | – | 420 | > 55000 | inactive |
| C[C@H]1CCCC[C@H]1Oc1nc(N)c2c(=O)ccn(Cc3ccc(C(=O)O)cc3)c2n1 (relative stereo) | > 100 | > 100 | – | 19 | > 55000 | inactive |
| C[C@H]1CCCC[C@H]1Oc1nc(N)c2c(=O)ccn(CC3C[C@@H](O)[C@@H](O)C3)c2n1 (stereo partly specified) | > 100 | > 100 | – | 68 | > 55000 | inactive |
| C[C@H]1CCCC[C@H]1Oc1nc(N)c2c(=O)ccn(CC3CC=CC3)c2n1 (relative stereo) | > 100 | > 100 | – | 20 | > 55000 | inactive |
| C[C@@H]1CCCC[C@@H]1Oc1nc(N)c2c(=O)ccn(CCO)c2n1 (relative stereo) | – | – | – | 57 | > 55000 | inactive |
| Nc1nc(OC2CCCC2)nc2c1c(=O)ccn2CCO | – | – | – | 510 | > 55000 | inactive |
| C[C@H]1CCCC[C@H]1Oc1nc(N)c2c(=O)ccn(CC#N)c2n1 (relative stereo) | > 100 | > 100 | – | 20 | > 55000 | inactive |
| C[C@H]1CCCC[C@H]1Oc1nc(N)c2c(=O)ccn([C@@H]3CC[C@@H]4C[C@H]3OC4=O)c2n1 | > 100 | > 100 | – | 28 | > 55000 | inactive |
| C[C@H]1CCCC[C@H]1Oc1nc(N)c2c(=O)ccn(CCC#N)c2n1 (relative stereo) | > 100 | > 100 | – | 36 | > 55000 | inactive |
| Nc1nc(OC2CCC(C(F)(F)F)CC2)nc2c1c(=O)ccn2[C@H]1CCC[C@@H]1O (relative stereo) | 50 (≈ 20.6 µg/mL) | 8.4 (≈ 3.46 µg/mL) | > 100 | 350 | > 55000 | inactive |
| CC1CCC(Oc2nc(N)c3c(=O)ccn([C@H]4CCC[C@@H]4O)c3n2)C(C)C1 (relative stereo) | > 100 | 16.7 (≈ 6.22 µg/mL) | 50 (≈ 18.6 µg/mL) | 170 | > 55000 | inactive |
| C[C@H]1CC[C@H](Oc2nc(N)c3c(=O)ccn([C@H]4CC(C(N)=O)C[C@@H]4O)c3n2)CC1 (stereo partly specified) | > 100 | 20.8 (≈ 8.35 µg/mL) | 100 (≈ 40.1 µg/mL) | 48 | > 55000 | inactive |
| C[C@H]1CCCC[C@H]1Oc1nc(N)c2c(=O)ccn(CC(O)CF)c2n1 (relative stereo) | > 100 | 100 (≈ 35 µg/mL) | – | 28 | > 55000 | inactive |
| C[C@H]1CCCC[C@H]1Oc1nc(N)c2c(=O)ccn([C@@H]3CCCC[C@H]3O)c2n1 | 100 (≈ 37.2 µg/mL) | 75 (≈ 27.9 µg/mL) | – | 110 | > 55000 | inactive |
| Nc1nc(OC2CCC3(CC2)OCCO3)nc2c1c(=O)ccn2[C@H]1CCC[C@@H]1O (relative stereo) | > 100 | 50 (≈ 20.1 µg/mL) | > 100 | 90 | > 55000 | inactive |
| Nc1nc(NC2CCCC2)nc2c1c(=O)ccn2CCO | – | – | – | > 10000 | > 55000 | inactive |
| Nc1nc(OCCF)nc2c1c(=O)ccn2CCO | – | – | – | 1950 | > 55000 | inactive |

Continued by falling IC50 [1], values first:

| MIC (Staphylococcus aureus) [µM] | MIC (Streptococcus pneumoniae) [µM] | MIC (Haemophilus influenzae) [µM] | IC50 [1] [nM] | IC50 [2] [nM] | Compound | Activity (Escherichia coli) |
| --- | --- | --- | --- | --- | --- | --- |
| – | – | – | 1060 | > 55000 | CC(C)Oc1nc(N)c2c(=O)ccn(CCO)c2n1 | inactive |
| – | – | – | 350 | > 55000 | Nc1nc(SC2CCCC2)nc2c1c(=O)ccn2CCO | inactive |
| – | – | – | 310 | > 55000 | Nc1nc(OC(CF)CF)nc2c1c(=O)ccn2CCO | inactive |
| 25 (≈ 9.36 µg/mL) | 4.2 (≈ 1.57 µg/mL) | > 100 | 225 | > 55000 | C[C@H]1CC[C@H](Oc2nc(N)c3c(=O)ccn([C@H]4CC[C@H](O)[C@@H]4O)c3n2)CC1 | inactive |
| 25 (≈ 8.66 µg/mL) | > 100 | > 100 | 63 | > 55000 | Nc1nc(SC2CCCC2)nc2c1c(=O)ccn2[C@H]1CCC[C@@H]1O (relative stereo) | inactive |
| > 100 | 83.3 (≈ 33.5 µg/mL) | > 100 | 51 | > 55000 | C[C@H]1CC[C@H](Oc2nc(N)c3c(=O)ccn([C@H]4CC(C(=O)O)C[C@@H]4O)c3n2)CC1 (stereo partly specified) | inactive |
| 50 (≈ 18.9 µg/mL) | 6.3 (≈ 2.39 µg/mL) | 75 (≈ 28.4 µg/mL) | 41 | > 55000 | Nc1nc(OC2CCC(Cl)CC2)nc2c1c(=O)ccn2[C@H]1CCC[C@@H]1O (relative stereo) | inactive |
| 18.8 (≈ 6.74 µg/mL) | 6.3 (≈ 2.26 µg/mL) | 75 (≈ 26.9 µg/mL) | 39 | > 55000 | C[C@H]1CC[C@H](Oc2nc(N)c3c(=O)ccn([C@H]4CCC[C@@H]4O)c3n2)CC1 | inactive |
| 100 (≈ 36 µg/mL) | 100 (≈ 36 µg/mL) | – | 38 | > 55000 | C[C@H]1CCCC[C@H]1Oc1nc(N)c2c(=O)ccn([C@@H]3COC[C@H]3O)c2n1 | inactive |
| > 100 | > 100 | – | 36 | > 55000 | C[C@H]1CCCC[C@H]1Oc1nc(N)c2c(=O)ccn(Cc3cn[nH]c3)c2n1 (relative stereo) | inactive |
